# Results reported in article PMC7587356, “High-Throughput Screening for Inhibitors of the SARS-CoV-2 Protease Using a FRET-Biosensor” (Molecules, 2020).
# Where a name gives a salt, the structure may show the parent alone. Read-outs that look alike come from different tables or passages of the source.
# Biological target: SARS-CoV-2 3CLpro (Severe acute respiratory syndrome coronavirus 2, UniProt P0DTD1)
# Experiment: biochemical
# Format: biochemical
# Design: Replicate_1 / Replicate_2 / mean / mean (LOPAC_screen_w_protease): unit not given here
# Conditions: for inhibition at 5 µM: 4 h
# [1] = sheet LOPAC_screen_w_protease, primary screen with protease, mean of two replicates, read-out: mean
# [2] = sheet LOPAC_screen_w_protease, primary screen with protease, replicate 1, read-out: Replicate_1
# [3] = sheet LOPAC_screen_w_protease, primary screen with protease, replicate 2, read-out: Replicate_2
# [4] = sheet LOPAC_screen_w_protease, primary screen with protease, 5 µM, mean of two replicates
# [5] = sheet LOPAC_screen_w_protease, primary screen with protease, 5 µM, replicate 1
# [6] = sheet LOPAC_screen_w_protease, primary screen with protease, 5 µM, replicate 2
# [7] = sheet LOPAC_screen_w_protease, primary screen of LOPAC1280 at 5 µM with protease, mean of the two replicates
# [8] = sheet LOPAC_screen_w_protease, primary screen of LOPAC1280 at 5 µM with protease, replicate 1
# [9] = sheet LOPAC_screen_w_protease, primary screen of LOPAC1280 at 5 µM with protease, replicate 2
# [10] = sheet LOPAC_screen_w_protease, LOPAC1280 primary screen with protease, 5 µM compound, mean of the two replicates
# [11] = sheet LOPAC_screen_w_protease, LOPAC1280 primary screen with protease, 5 µM compound, replicate 1
# [12] = sheet LOPAC_screen_w_protease, LOPAC1280 primary screen with protease, 5 µM compound, replicate 2
# [13] = LOPAC1280 primary screen with protease, 5 µM compound, mean of two replicates
# [14] = LOPAC1280 primary screen with protease, 5 µM compound, replicate 1
# [15] = LOPAC1280 primary screen with protease, 5 µM compound, replicate 2
# [16] = sheet LOPAC_screen_w_protease, primary screen at 5 µM, mean of two replicates, read-out: mean (LOPAC screen with protease)
# [17] = sheet LOPAC_screen_w_protease, primary screen at 5 µM, replicate 1, read-out: Replicate_1 (LOPAC screen with protease)
# [18] = sheet LOPAC_screen_w_protease, primary screen at 5 µM, replicate 2, read-out: Replicate_2 (LOPAC screen with protease)
# [19] = sheet LOPAC_screen_w_protease, primary screen with protease, 5 µM, mean of two replicates, read-out: mean
# [20] = sheet LOPAC_screen_w_protease, primary screen with protease, 5 µM, replicate 1, read-out: Replicate_1
# [21] = sheet LOPAC_screen_w_protease, primary screen with protease, 5 µM, replicate 2, read-out: Replicate_2
# [22] = sheet LOPAC_screen_w_protease, LOPAC1280 primary screen at 5 µM, with protease, mean of the two replicates, read-out: mean
# [23] = sheet LOPAC_screen_w_protease, LOPAC1280 primary screen at 5 µM, with protease, replicate 1, read-out: Replicate_1
# [24] = sheet LOPAC_screen_w_protease, LOPAC1280 primary screen at 5 µM, with protease, replicate 2, read-out: Replicate_2
# [25] = sheet LOPAC_screen_w_protease, primary screen at 5 µM, mean of two replicates
# [26] = sheet LOPAC_screen_w_protease, primary screen at 5 µM, replicate 1
# [27] = sheet LOPAC_screen_w_protease, primary screen at 5 µM, replicate 2
# [28] = LOPAC1280 primary screen with protease, 5 µM compound, mean of the two replicates
# [29] = sheet LOPAC_screen_w_protease, primary screen with protease, compound at 5 µM, mean of two replicates
# [30] = sheet LOPAC_screen_w_protease, primary screen with protease, compound at 5 µM, replicate 1
# [31] = sheet LOPAC_screen_w_protease, primary screen with protease, compound at 5 µM, replicate 2
# [32] = sheet LOPAC_screen_w_protease, primary screen of LOPAC1280 at 5 µM with protease, mean of the two replicates, read-out: mean
# [33] = sheet LOPAC_screen_w_protease, primary screen of LOPAC1280 at 5 µM with protease, replicate 1, read-out: Replicate_1
# [34] = sheet LOPAC_screen_w_protease, primary screen of LOPAC1280 at 5 µM with protease, replicate 2, read-out: Replicate_2
smiles,measurement,setting,value
C#C[C@]1(O)CC[C@H]2[C@@H]3CCC4=Cc5oncc5C[C@]4(C)[C@H]3CC[C@@]21C [Danazol],inhibition at 5 µM,[1],2.5%
same,inhibition at 5 µM,[2],4.08%
same,inhibition at 5 µM,[3],0.911%
CCCCCC(O)CCCC(=O)O.[Na] (stereo not drawn) [5-hydroxydecanoic acid sodium],mean,[4],0.3617
same,Replicate_1,[5],2.03
same,Replicate_2,[6],-1.306
COC(=O)[C@@H](N)CCCN=C(N)N[N+](=O)[O-].Cl,mean,[7],3.268
same,Replicate_1,[8],2.366
same,Replicate_2,[9],4.171
O=C(O)/C=C/C(=O)O.O=C(O)/C=C/C(=O)O.O=C(O)/C=C/C(=O)O.O=C1CCCN1CC#CCN1CCCC1.O=C1CCCN1CC#CCN1CCCC1 [Oxotremorine sesquifumarate salt],mean,[10],4.476
same,Replicate_1,[11],3.394
same,Replicate_2,[12],5.5586
OCc1ccc(-c2nn(Cc3ccccc3)c3ccccc23)o1 [YC-1],mean (LOPAC_screen_w_protease),[13],1.333
same,Replicate_1 (LOPAC_screen_w_protease),[14],0.3284
same,Replicate_2 (LOPAC_screen_w_protease),[15],2.338
Cn1cc(C2=C(c3ccc(Cl)cc3Cl)C(=O)NC2=O)c2ccccc21 [SB 216763],inhibition at 5 µM,[16],6.45%
same,inhibition at 5 µM,[17],5.91%
same,inhibition at 5 µM,[18],6.98%
CCCN1CCC[C@H](c2cccc(O)c2)C1.Cl [R(+)-3PPP hydrochloride],mean,"sheet LOPAC_screen_w_protease, LOPAC1280 at 5 µM, mean of two replicates",0.9121
same,Replicate_1,"sheet LOPAC_screen_w_protease, LOPAC1280 at 5 µM, replicate 1",1.657
same,Replicate_2,"sheet LOPAC_screen_w_protease, LOPAC1280 at 5 µM, replicate 2",0.167
Cc1scc2c1N(C(=O)CN1CCN(C)CC1)c1ccccc1NC2=O [Telenzepine dihydrochloride],inhibition at 5 µM,[19],0.413%
same,inhibition at 5 µM,[20],-0.915%
same,inhibition at 5 µM,[21],1.74%
Nc1nc2ccc(Cl)cc2c2nc(-c3ccco3)nn12 [CGS-15943],inhibition at 5 µM,read-out: Replicate_1,3.31%
same,inhibition at 5 µM,read-out: Replicate_2,3.81%
same,inhibition at 5 µM,read-out: mean,3.56%
"CC(=O)C(C)=O [2,3-Butanedione]",inhibition at 5 µM,[22],0.702%
same,inhibition at 5 µM,[23],1.88%
same,inhibition at 5 µM,[24],-0.473%
C=CCN1CC[C@]23c4c5ccc(O)c4O[C@@H]2/C(=N/N=C2\CC[C@@]4(O)C6Cc7ccc(O)c8c7[C@@]4(CCN6CC=C)[C@@H]2O8)CC[C@@]3(O)C1C5.Cl.Cl [Naloxonazine dihydrochloride],mean (LOPAC screen with protease),[25],7.252
same,Replicate_1 (LOPAC screen with protease),[26],6.395
same,Replicate_2 (LOPAC screen with protease),[27],8.109
CN1CCN(C2Cc3ccccc3Sc3ccc(Cl)cc32)CC1.O=C(O)/C=C\C(=O)O (racemic) [(±)-Octoclothepin maleate],mean,[10],4.928
same,Replicate_1,[11],3.609
same,Replicate_2,[12],6.247
COc1ccc(C2CNC(=O)C2)cc1OC1CCCC1 (stereo not drawn) [Rolipram],inhibition at 5 µM,[19],-0.575%
same,inhibition at 5 µM,[20],-0.0105%
same,inhibition at 5 µM,[21],-1.14%
N[C@@H](Cc1c[nH]c2ccc(O)cc12)C(=O)O [5-Hydroxy-L-tryptophan],inhibition at 5 µM,[16],14.5%
same,inhibition at 5 µM,[17],16.3%
same,inhibition at 5 µM,[18],12.8%
NC/C=C/C(=O)O [(E)-4-amino-2-butenoic acid],mean (LOPAC_screen_w_protease),[13],1.558
same,Replicate_1 (LOPAC_screen_w_protease),[14],1.878
same,Replicate_2 (LOPAC_screen_w_protease),[15],1.238
N[C@@H](Cc1ccc(O)c(I)c1)C(=O)O [3-Iodo-L-tyrosine],mean (LOPAC_screen_w_protease),[28],1.849
same,Replicate_1 (LOPAC_screen_w_protease),[14],1.662
same,Replicate_2 (LOPAC_screen_w_protease),[15],2.037
C[C@](N)(Cc1ccc(O)c(O)c1)C(=O)O [L-alpha-Methyl DOPA],mean (LOPAC screen with protease),[25],7.163
same,Replicate_1 (LOPAC screen with protease),[26],6.315
same,Replicate_2 (LOPAC screen with protease),[27],8.01
NC(CP(=O)(O)O)C(=O)O (racemic) [(±)-2-Amino-3-phosphonopropionic acid],mean,[29],3.099
same,Replicate_1,[30],4.251
same,Replicate_2,[31],1.946
Cl.c1ccc2sc(C3(N4CCCCC4)CCCCC3)cc2c1 [BTCP hydrochloride],mean (LOPAC_screen_w_protease),[28],2.11
same,Replicate_1 (LOPAC_screen_w_protease),[14],1.768
same,Replicate_2 (LOPAC_screen_w_protease),[15],2.452
"COc1cccc(-c2cc(=O)c3ccccc3o2)c1N [PD 98,059]",Replicate_1,,3.541
same,Replicate_2,,1.402
same,mean,,2.471
O=C(Nc1ccc([N+](=O)[O-])cc1Cl)c1cc(Cl)ccc1O [Niclosamide],inhibition at 5 µM,read-out: Replicate_1,5.53%
same,inhibition at 5 µM,read-out: Replicate_2,4%
same,inhibition at 5 µM,read-out: mean,4.76%
Cn1c(=O)c2c(ncn2C)n(C)c1=O [Caffeine],inhibition at 5 µM,[1],2.35%
same,inhibition at 5 µM,[2],1.98%
same,inhibition at 5 µM,[3],2.71%
O=C(NCCNCC(O)COc1ccc(O)cc1)N1CCOCC1 (stereo not drawn) [Xamoterol hemifumarate],inhibition at 5 µM,[22],0.551%
same,inhibition at 5 µM,[23],1.09%
same,inhibition at 5 µM,[24],0.0143%
O=C(O)CCc1nc(-c2ccccc2)c(-c2ccccc2)o1 [Oxaprozin],inhibition at 5 µM,read-out: Replicate_1,3.59%
same,inhibition at 5 µM,read-out: Replicate_2,3.25%
same,inhibition at 5 µM,read-out: mean,3.42%
CC(=O)OCC1=C(C(=O)[O-])N2C(=O)[C@@H](NC(=O)CCC[C@@H](N)C(=O)[O-])[C@H]2SC1.[Zn+2] [Cephalosporin C zinc salt],mean,[4],0.2554
same,Replicate_1,[5],0.7755
same,Replicate_2,[6],-0.2647
CCCN(CCC)CCc1c[nH]c2ccc(C(N)=O)cc12.O=C(O)/C=C\C(=O)O,mean,[7],3.512
same,Replicate_1,[8],3.371
same,Replicate_2,[9],3.653
CC(C)[C@H]1CN[C@H](C(=O)O)[C@H]1CC(=O)O [Dihydrokainic acid],mean,"sheet LOPAC_screen_w_protease, LOPAC1280 primary screen at 5 µM, with protease, mean of the two replicates",0.7305
same,Replicate_1,"sheet LOPAC_screen_w_protease, LOPAC1280 primary screen at 5 µM, with protease, replicate 1",1.689
same,Replicate_2,"sheet LOPAC_screen_w_protease, LOPAC1280 primary screen at 5 µM, with protease, replicate 2",-0.2284
Nc1nc(N)c2nc(CNc3ccc(C(=O)N[C@@H](CCC(=O)O)C(=O)O)cc3)cnc2n1 [Aminopterin],inhibition at 5 µM,"LOPAC1280 primary screen with protease, 5 µM compound, replicate 1, read-out: Replicate_1 (LOPAC_screen_w_protease)",2.12%
same,inhibition at 5 µM,"LOPAC1280 primary screen with protease, 5 µM compound, replicate 2, read-out: Replicate_2 (LOPAC_screen_w_protease)",1.52%
same,mean (LOPAC_screen_w_protease),[28],1.819
NC(=O)CN1CCCC1=O [Piracetam],inhibition at 5 µM,[32],3.49%
same,inhibition at 5 µM,[33],5.61%
same,inhibition at 5 µM,[34],1.37%
Oc1ccc(-c2nc(-c3ccncc3)c(-c3ccc(F)cc3)[nH]2)cc1 [SB 202190],inhibition at 5 µM,[1],2.45%
same,inhibition at 5 µM,[2],1.31%
same,inhibition at 5 µM,[3],3.6%
CN(C)CCC=C1c2ccccc2CCc2ccccc21 [Amitriptyline hydrochloride],inhibition at 5 µM,[22],0.72%
same,inhibition at 5 µM,[23],0.391%
same,inhibition at 5 µM,[24],1.05%
NC(N)=Nc1ccc2[nH]c3c(c2c1)C[C@@]1(O)[C@H]2Cc4ccc(O)c5c4[C@@]1(CCN2CC1CC1)[C@H]3O5.O=C(O)C(F)(F)F.O=C(O)C(F)(F)F,mean,[10],5.687
same,Replicate_1,[11],7.859
same,Replicate_2,[12],3.515
N.S=C(S)N1CCCC1 [Ammonium pyrrolidinedithiocarbamate],mean (LOPAC screen with protease),[25],72.0091
same,Replicate_1 (LOPAC screen with protease),[26],73.369
same,Replicate_2 (LOPAC screen with protease),[27],70.6492
Cl.Fc1ccc(C(OCCCc2c[nH]cn2)c2ccc(F)cc2)cc1,mean,[29],2.8
same,Replicate_1,[30],1.774
same,Replicate_2,[31],3.825
CC(C)NCC(O)COc1cccc2ccccc12.Cl (racemic) [(±)-Propranolol hydrochloride],Replicate_1,,2.83
same,Replicate_2,,6.763
same,mean,,4.797
CN1CCC(=C2c3ccccc3CC(=O)c3sccc32)CC1 [Ketotifen fumarate],inhibition at 5 µM,[32],3.16%
same,inhibition at 5 µM,[33],4.97%
same,inhibition at 5 µM,[34],1.34%
